According to PubChem BioAssay (NCI):
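Assay format: 96-well plates, 48-hour exposure. The concentration for full growth arrest is given as TGI.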

Experiments:
Assay in all cases: NCI tumour cell line growth inhibition, 48 h
786-0 renal = test system: 786-0 renal
A498 renal = test system: A498 renal
A549 NSCLC = test system: A549 NSCLC
ACHN renal = test system: ACHN renal
CCRF-CEM leukemia = test system: CCRF-CEM leukemia
COLO 205 colon = test system: COLO 205 colon
DLD-1 colon = test system: DLD-1 colon
DMS 114 small cell lung = test system: DMS 114 small cell lung
DMS 273 small cell lung = test system: DMS 273 small cell lung
EKVX NSCLC = test system: EKVX NSCLC
HCC-2998 colon = test system: HCC-2998 colon
HCT-116 colon = test system: HCT-116 colon
HCT-15 colon = test system: HCT-15 colon
HL-60(TB) leukemia = test system: HL-60(TB) leukemia
HOP-18 NSCLC = test system: HOP-18 NSCLC
HOP-62 NSCLC = test system: HOP-62 NSCLC
HOP-92 NSCLC = test system: HOP-92 NSCLC
HT29 colon = test system: HT29 colon
IGROV1 ovarian = test system: IGROV1 ovarian
K-562 leukemia = test system: K-562 leukemia
KM12 colon = test system: KM12 colon
KM20L2 colon = test system: KM20L2 colon
LOX IMVI melanoma = test system: LOX IMVI melanoma
LXFL 529 NSCLC = test system: LXFL 529 NSCLC
M14 melanoma = test system: M14 melanoma
M19-MEL melanoma = test system: M19-MEL melanoma
MALME-3M melanoma = test system: MALME-3M melanoma
MOLT-4 leukemia = test system: MOLT-4 leukemia
NCI-H23 lung = test system: NCI-H23 lung
NCI-H460 lung = test system: NCI-H460 lung
OVCAR-3 ovarian = test system: OVCAR-3 ovarian
OVCAR-4 ovarian = test system: OVCAR-4 ovarian
OVCAR-5 ovarian = test system: OVCAR-5 ovarian
OVCAR-8 ovarian = test system: OVCAR-8 ovarian
RPMI-8226 leukemia = test system: RPMI-8226 leukemia
RXF 393 renal = test system: RXF 393 renal
SF-268 CNS = test system: SF-268 CNS
SF-295 CNS = test system: SF-295 CNS
SF-539 CNS = test system: SF-539 CNS
SK-MEL-2 melanoma = test system: SK-MEL-2 melanoma
SK-MEL-28 melanoma = test system: SK-MEL-28 melanoma
SK-MEL-5 melanoma = test system: SK-MEL-5 melanoma
SK-OV-3 ovarian = test system: SK-OV-3 ovarian
SN12C renal = test system: SN12C renal
SNB-19 CNS = test system: SNB-19 CNS
SNB-75 CNS = test system: SNB-75 CNS
SNB-78 CNS = test system: SNB-78 CNS
SR leukemia = test system: SR leukemia
SW-620 colon = test system: SW-620 colon
TK-10 renal = test system: TK-10 renal
U251 CNS = test system: U251 CNS
UACC-257 melanoma = test system: UACC-257 melanoma
UACC-62 melanoma = test system: UACC-62 melanoma
UO-31 renal = test system: UO-31 renal
XF 498 CNS = test system: XF 498 CNS

N#CC1C2CCC3(CC2CCN1C(=O)c1ccccc1)OCCO3 (stereo not given)
TGI (786-0 renal): > 100 µM | TGI (A498 renal): > 100 µM | TGI (A549 NSCLC): > 100 µM | TGI (ACHN renal): > 100 µM | TGI (CCRF-CEM leukemia): > 100 µM | TGI (COLO 205 colon): > 100 µM | TGI (DLD-1 colon): > 100 µM | TGI (DMS 114 small cell lung): > 100 µM | TGI (DMS 273 small cell lung): > 100 µM | TGI (EKVX NSCLC): > 100 µM | TGI (HCC-2998 colon): > 100 µM | TGI (HCT-116 colon): > 100 µM | TGI (HCT-15 colon): > 100 µM | TGI (HL-60(TB) leukemia): > 100 µM | TGI (HOP-18 NSCLC): > 100 µM | TGI (HOP-62 NSCLC): > 100 µM | TGI (HOP-92 NSCLC): > 100 µM | TGI (HT29 colon): > 100 µM | TGI (IGROV1 ovarian): > 100 µM | TGI (K-562 leukemia): > 100 µM | TGI (KM12 colon): > 100 µM | TGI (KM20L2 colon): > 100 µM | TGI (LOX IMVI melanoma): > 100 µM | TGI (LXFL 529 NSCLC): > 100 µM | TGI (M14 melanoma): > 100 µM | TGI (M19-MEL melanoma): > 100 µM | TGI (MALME-3M melanoma): > 100 µM | TGI (MOLT-4 leukemia): > 100 µM | TGI (NCI-H23 lung): > 100 µM | TGI (NCI-H460 lung): > 100 µM | TGI (OVCAR-3 ovarian): > 100 µM | TGI (OVCAR-4 ovarian): > 100 µM | TGI (OVCAR-5 ovarian): > 100 µM | TGI (OVCAR-8 ovarian): > 100 µM | TGI (RPMI-8226 leukemia): > 100 µM | TGI (RXF 393 renal): > 100 µM | TGI (SF-268 CNS): > 100 µM | TGI (SF-295 CNS): > 100 µM | TGI (SF-539 CNS): > 100 µM | TGI (SK-MEL-2 melanoma): 61.9 µM | TGI (SK-MEL-28 melanoma): > 100 µM | TGI (SK-MEL-5 melanoma): > 100 µM | TGI (SK-OV-3 ovarian): > 100 µM | TGI (SN12C renal): > 100 µM | TGI (SNB-19 CNS): > 100 µM | TGI (SNB-75 CNS): > 100 µM | TGI (SNB-78 CNS): > 100 µM | TGI (SR leukemia): > 100 µM | TGI (SW-620 colon): > 100 µM | TGI (TK-10 renal): > 100 µM | TGI (U251 CNS): > 100 µM | TGI (UACC-257 melanoma): > 100 µM | TGI (UACC-62 melanoma): > 100 µM | TGI (UO-31 renal): > 100 µM | TGI (XF 498 CNS): > 100 µM
